This is an account of results in patent US20230128120A1, “OMEGA MURICHOLIC ACID AS A PREGNANE X RECEPTOR LIGAND FOR TREATING HEPATO-INTESTINAL DISEASES” (University of Washington, priority 2021, published 2023).

Common to all, as to assay type: cell-based
Data set [1] concerns the target T1, human PXR (Homo sapiens, UniProt O75469).
T1 sequence (O75469 1-434): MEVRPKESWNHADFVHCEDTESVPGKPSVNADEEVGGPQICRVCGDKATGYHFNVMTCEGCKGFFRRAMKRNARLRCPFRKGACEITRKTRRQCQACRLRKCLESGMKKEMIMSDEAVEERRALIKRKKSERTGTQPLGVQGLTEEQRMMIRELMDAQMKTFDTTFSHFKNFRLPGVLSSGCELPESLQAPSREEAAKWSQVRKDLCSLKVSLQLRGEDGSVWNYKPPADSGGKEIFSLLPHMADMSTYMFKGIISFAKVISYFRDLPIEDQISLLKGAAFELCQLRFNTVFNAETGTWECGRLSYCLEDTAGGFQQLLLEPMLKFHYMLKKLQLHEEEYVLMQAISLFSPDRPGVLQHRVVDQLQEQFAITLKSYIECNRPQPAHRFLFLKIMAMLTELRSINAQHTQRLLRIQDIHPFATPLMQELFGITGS
Description: Reporter assay in LS intestinal cells transfected with human PXR + reporter. The settings on record: 24 h incubation, dose-response, up to the maximum tested concentration, four cell passages. As for the experimental part: Reporter assay was performed using LS intestinal cells transfected with human PXR + reporter. Incubation time was 24 h and a dose-response curve was plotted. Results were confirmed using four different cells passages.
Percent displacement of reporter from human PXR as a function of MDCA concentration was evaluated and the results are shown in FIG. 9.
A reporter assay was performed using LS intestinal cells transfected with human PXR + reporter. Incubation time was 24 h and a dose-response curve was plotted. Results were confirmed using four different cells passages.
Background: In a reporter assay the amount or activity of a reporter protein is the signal.

The target of data set [2] is T2, mouse PXR (mPXR) (Mus musculus, UniProt O54915).
T2 construct: expressed in transfected cells
T2 sequence (O54915 1-431): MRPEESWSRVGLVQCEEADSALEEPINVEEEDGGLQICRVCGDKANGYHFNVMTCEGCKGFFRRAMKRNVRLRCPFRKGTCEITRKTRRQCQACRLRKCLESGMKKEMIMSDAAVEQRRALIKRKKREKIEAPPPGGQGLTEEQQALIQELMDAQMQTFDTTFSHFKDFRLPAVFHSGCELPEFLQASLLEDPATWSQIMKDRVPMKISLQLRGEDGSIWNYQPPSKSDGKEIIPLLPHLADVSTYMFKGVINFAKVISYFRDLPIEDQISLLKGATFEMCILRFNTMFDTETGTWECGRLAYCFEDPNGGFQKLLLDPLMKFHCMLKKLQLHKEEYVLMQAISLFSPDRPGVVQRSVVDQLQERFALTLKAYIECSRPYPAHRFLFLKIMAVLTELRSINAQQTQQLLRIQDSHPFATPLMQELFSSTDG
Put plainly: Luciferase reporter assay with mouse PXR (mPXR) plasmid. Conditions: in vitro at 1 µM and 10 µM. The text has this: (§1) Data are expressed as average of relative luciferase units among the technical triplicates ± S.E. Asterisks (*) represent statistically significant difference as compared to the vehicle group (one-way ANOVA followed by Duncan’s post hoc test, p < 0.05).
(§2) The prototypical mPXR ligand pregnenolone 16α-carbonitrile (PCN) was used as a positive control (FIG. 4B right panel). […] The prototypical hPXR ligand rifampicin (Rif) was used as a positive control (FIG. 4B left panel).

In data set [3] the target is T3, human PXR (hPXR) (Homo sapiens, UniProt O75469).
T3 construct: expressed in transfected cells
T3 sequence (O75469 1-434): T1 sequence (O75469 1-434)
Put plainly: Luciferase reporter assay with human PXR (hPXR) plasmid. The settings on record: in vitro at 5 µM.
Text: as §1, §2

“Also recorded” adds a separate entry of the source.

Regarding `C[C@H](CCC(=O)O)[C@H]1CC[C@H]2[C@@H]3C[C@H](O)[C@@H]4C[C@H](O)CC[C@]4(C)[C@H]3CC[C@]12C` [murideoxycholic acid], the “binding affinity towards PXR (percent displacement of reporter from human PXR)” value in data set [1] (listed as MDCA) was “no binding affinity; also recorded: totally inactive”.

Take `C[C@H](CCC(=O)O)[C@H]1CC[C@H]2[C@@H]3[C@@H](O)[C@H](O)[C@@H]4C[C@H](O)CC[C@]4(C)[C@H]3CC[C@]12C` [omega muricholic acid, ω-muricholic acid]: the “mPXR activation (relative luciferase units vs vehicle)” value in data set [2] was “activated”. Further, the “hPXR activation (relative luciferase units vs vehicle)” value in data set [3] is “weakly activated”. Further, in data set [1], the “binding affinity towards PXR (percent displacement of reporter from human PXR)” value is on record as “effective binding”.
